Assay results reported in patent publication US20240391930A1, “SPIROCYCLIC BICYCLIC MODULATORS OF CHOLESTEROL BIOSYNTHESIS AND THEIR USE FOR PROMOTING REMYELINATION” (GENENTECH, INC., priority 2021, published 2024).

How the values were obtained:
[1] = test system: EpiSC-derived OPCs; assay: In vitro phenotypic screening of OPCs (MBP high-content imaging); type: cell-based; conditions: Mus musculus, 72 h; percentage of MBP-positive oligodendrocytes, 3 days, 0.5 nM to 1000 nM; read-out: OPC EC50
Protocol: To assess effects of treatments on OPCs, all treatments were assayed in two or more independent platings of epiblast stem cell-derived OPCs (EpiSC). EpiSC-derived OPCs were obtained using in vitro differentiation protocols and culture conditions described previously (Najm et al, 2011, Nature Methods). OPCs were expanded and frozen down in aliquots. OPCs were thawed into growth conditions for at least one passage before use in further assays.
EpiSC-derived OPCs were grown and expanded in poly-L-ornithine (PO) and laminin-coated flasks in N2B27 media (DMEM/F12 (Gibco), N2-MAX (R&D Systems), B-27 (ThermoFisher), and GlutaMax (Gibco)) supplemented with FGF2 ([…], R&D systems, 233-FB-025) and PDGF-AA ([…], R&D systems, 233-AA-050) before harvesting for experiments. The cells were seeded onto poly-L-ornithine or poly-D-lysine coated CellCarrier Ultra plates (PerkinElmer) coated with laminin (Sigma, L2020) at a density of 150,000/cm^2 in N2B27 media without growth factors. For dose-response testing, a 1000× compound stock in dimethyl sulphoxide (DMSO) was added to assay plates, resulting in 8-point dose curves with final concentrations between 1000 nM and 0.5 nM. Positive controls and DMSO vehicle controls were included in each assay plate. Cells were incubated under standard conditions (37° C., 5% CO2) for 3 days and fixed with 4% paraformaldehyde (PFA) in phosphate buffered saline (PBS) for 20 min. Fixed plates were washed with PBS, permeabilized with 0.1% Triton X-100, and blocked with 10% donkey serum (v/v) in PBS for 40 min. Then, cells were labelled with MBP antibodies (Abcam, ab7349; 1:200) for 2 h at room temperature, washed with PBS, and stained with Alexa Fluor conjugated secondary antibodies (1:500) for 45 min. Nuclei were visualized by DAPI staining (Sigma; 1 μg/ml), followed by further PBS washes.
Cells and cell culture plates were imaged on the Operetta High Content Imaging and Analysis system (PerkinElmer). Analysis (PerkinElmer Harmony and Columbus software) began by identifying intact nuclei stained by DAPI. The peri-nuclear region of each cell was then cross-referenced with the […] (MBP) stain to identify oligodendrocyte nuclei, and from this the percentage of oligodendrocytes was calculated.

[2] = molecular target: T1, human emopamil binding protein and human 7-dehydrocholesterol reductase (hEBP-DHCR7) (Homo sapiens, UniProt Q15125); assay: hEBP-DHCR7 radioligand filtration binding assay; conditions: membranes of HEK293 co-expressing hEBP and DHCR7; [3H] 2-thia-6-azaspiro[3.4]octane radioligand; 8 doses 0.06 to 5000 nM
T1 construct: expressed in transfected cells; host or cells: HEK 293 cells, transient transfection with 2 DNA constructs
T1 sequence (Q15125 whole entry): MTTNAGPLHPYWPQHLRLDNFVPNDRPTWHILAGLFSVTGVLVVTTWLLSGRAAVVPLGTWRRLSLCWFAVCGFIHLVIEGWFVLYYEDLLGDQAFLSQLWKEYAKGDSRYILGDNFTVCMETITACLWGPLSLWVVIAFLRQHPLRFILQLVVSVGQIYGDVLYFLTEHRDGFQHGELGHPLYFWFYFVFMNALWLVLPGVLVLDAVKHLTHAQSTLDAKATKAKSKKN
Protocol: Membrane Preparation: human emopamil binding protein and human 7-dehydrocholesterol reductase co-expressing cells were generated by transient transfecting host human embryonic kidney (HEK) 293 cells with 2 DNA constructs containing each protein's coding sequence. Cells were suspension cultured at 37° C. with 5% CO2 in […] 293 Expression Medium (Thermofisher). Whole cell membrane was prepared by harvesting the cell pellet, adding cold membrane buffer (50 mM Tris, pH7.5, lx Roche COMPLETE EDTA-free protease inhibitor cocktail) 10 times volume of the cell pellets weight, lysing cell pellet on ice by using Dounce homogenizer, spinning at 200 g 4° C. for 15 min, collecting supernatant and spinning again at 25000 g 4° C. for 50 min, transferring pellet to Dounce homogenizer, re-suspending pellet by homogenizing in membrane buffer on ice to reach ˜25 mg/mL, then keeping whole cell membrane aliquots at −80° C.
Compounds were prepared in a 96-well U bottom plate using an Echo550 machine and 10 mM compound DMSO stock solution, followed by an 8-dose 5-fold serial dilutions protocol with final testing compound concentration ranging from 0.06 to 5000 nM, with DMSO back fill to 100 nL/well and n=2. […] The UniFilter-96 GF/B plates were pre-treated by adding 50 µl/well of 0.3% (v/v) PEI to UniFilter-96 GF/B plates. The plates were sealed and incubated at 4° C. for 3 hrs. Then, the plates were washed with ice-cold assay buffer 3 times. The radioligand binding assay was prepared by adding assay buffer diluted hEBP-DHCR7 membrane at 66.7 μg/ml×150 l/well into the 96-well compound plate to reach 10 μg membrane per well. Then, the assay buffer diluted [3H]—((S)-6-(2-Methyl-3-(6-(trifluoromethyl)pyridin-3-yl)propyl)-2-thia-6-azaspiro[3.4]octane 2,2-dioxide or (R)-6-(2-Methyl-3-(6-(trifluoromethyl)pyridin-3-yl)propyl)-2-thia-6-azaspiro[3.4]octane 2,2-dioxide) was added at 25 nM×50 l/well. Following this, the plate was centrifuged at 1000 rpm for 30 secs. The plate was then sealed and agitated at 600 rpm at 22° C. for 5 min, and then incubated at 22° C. for 3 hrs. The incubation was stopped by transferring the binding solution to the pre-treated UniFilter-96 GF/B plate, vacuum filtrated, and then washed four times with ice-cold assay buffer. Following this, the plates were dried at 37° C. for 45 min. The plates were then sealed at the bottom. 40 µl/well of scintillation cocktail was added to the plates. A MicroBeta2 microplate counter was then used to read the plate and analyze the data. For reference and test compounds, the results are expressed as % Inhibition, using the normalization equation: N=100−100×(U−C2)/(C1−C2), where U is the unknown value, C1 is the average of high controls, and C2 is the average value of low controls. The IC50 was determined by fitting percentage of inhibition as a function of compound concentrations with Hill equation using XLfit. Results are expressed as hEBP-DHCR7 Ki (uM) in Table 4. Ki was calculated as described above; * indicates isolated isomer or isomers, but that the stereochemistry has not been assigned.

[3] = test system: zymostenol accumulation in EpiSC-derived OPCs (EBP); assay: GC/MS-based sterol profiling (zymostenol accumulation); type: cell-based; conditions: Mus musculus, 24 hours, 8 doses from 0.15 nM to 333 nM, read-out: Zymostenol GCMS EC50
Outline: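 Zymostenol level is expressed relative to that after 24 h with 100 nM positive-control reference, measured by full-scan GC/MS (m/z 458) with cholesterol-d7 internal standard after BSTFA derivatisation. Cells were EpiSC-derived OPCs, 100,000/well in N2B27 without growth factors, treated 24 h, from two or more independent platings.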

EC50 [1] [nM]	Ki [2] [nM]	EC50 [3] [nM]	SMILES
18	26	3.5	CC(C)(C)n1nc(C(F)(F)F)cc1[C@H]1[C@@H]2C[C@@H](N3CCC4(C3)CS(=O)(=O)C4)C[C@@H]21 (single isomer, unassigned) [Compound 57]
24	55.3	9.4	C[C@H](C(F)F)n1nc(C(F)(F)F)cc1[C@H]1[C@@H]2C[C@@H](N3CCC4(CC3)CS(=O)(=O)C4)C[C@@H]21 (racemic) [Compound 70*, 7-((1R,3S,5S,6r)-6-(1-((R)-1,1-difluoropropan-2-yl)-3-(trifluoromethyl)-1H-pyrazol-5-yl)bicyclo[3.1.0]hexan-3-yl)-2-thia-7-azaspiro[3.5]nonane 2,2-dioxide and 7-((1R,3R,5S,6r)-6-(1-((S)-1,1-difluoropropan-2-yl)-3-(trifluoromethyl)-1H-pyrazol-5-yl)bicyclo[3.1.0]hexan-3-yl)-2-thia-7-azaspiro[3.5]nonane 2,2-dioxide]
27	34.3	4.4	CCn1nc(-c2cncc(F)c2)cc1[C@H]1[C@@H]2C[C@H](N3CCC4(C3)CS(=O)(=O)C4)C[C@@H]21 (single isomer, unassigned) [Compound 69*]
102	21.6	10.6	CC(C)n1nc(C2CCC(F)(F)CC2)cc1[C@H]1[C@@H]2C[C@@H](N3CCC4(C3)CS(=O)(=O)C4)C[C@@H]21 [Compound 108, 6-((1R,3s,5S,6r)-6-(3-(4,4-Difluorocyclohexyl)-1-isopropyl-1H-pyrazol-5-yl)bicyclo[3.1.0]hexan-3-yl)-2-thia-6-azaspiro[3.4]octane 2,2-dioxide]
76	17.8	17	C[C@H](C(F)F)n1nc(C(F)(F)F)cc1[C@H]1[C@@H]2C[C@H](N3CCC4(CC3)CS(=O)(=O)C4)C[C@@H]21 (racemic) [Compound 71*, 7-((1R,3R,5S,6r)-6-(1-((R)-1,1-difluoropropan-2-yl)-3-(trifluoromethyl)-1H-pyrazol-5-yl)bicyclo[3.1.0]hexan-3-yl)-2-thia-7-azaspiro[3.5]nonane 2,2-dioxide and 7-((1R,3S,5S,6r)-6-(1-((S)-1,1-difluoropropan-2-yl)-3-(trifluoromethyl)-1H-pyrazol-5-yl)bicyclo[3.1.0]hexan-3-yl)-2-thia-7-azaspiro[3.5]nonane 2,2-dioxide]
175	164	25.8	CC(C)n1nc([C@H]2CC[C@](O)(C(F)(F)F)CC2)cc1[C@H]1[C@@H]2C[C@@H](N3CCC4(C3)CS(=O)(=O)C4)C[C@@H]21 (single isomer, unassigned) [Compound 104*]
130	65.2	19	O=S1(=O)CC2(CCN([C@H]3C[C@@H]4[C@H](C3)[C@H]4c3cc(C(F)(F)F)nn3CC(F)F)CC2)C1 (single isomer, unassigned) [Compound 63*]
6.2	14.9	2.2	CC(C)(C)n1nc(-c2cccc(C(F)(F)F)c2)nc1[C@H]1[C@@H]2C[C@@H](N3CCC4(C3)CS(=O)(=O)C4)C[C@@H]21 (single isomer, unassigned) [Compound 75]
92	59.1	32	CCn1nc(-c2ccccn2)cc1[C@H]1[C@@H]2C[C@H](N3CCC4(C3)CS(=O)(=O)C4)C[C@@H]21 [Compound 73, 6-((1R,3r,5S,6r)-6-(1-ethyl-3-(pyridin-2-yl)-1H-pyrazol-5-yl)bicyclo[3.1.0]hexan-3-yl)-2-thia-6-azaspiro[3.4]octane 2,2-dioxide]

More lines, now with the values behind:

SMILES	EC50 [1] [nM]	Ki [2] [nM]	EC50 [3] [nM]
CC(C)n1nc(-c2cncc(C(F)(F)F)c2)cc1[C@H]1[C@@H]2C[C@@H](N3CC[C@]4(CCS(=O)(=O)C4)C3)C[C@@H]21 (single isomer, unassigned) [Compound 8*]	2.5	18.1	3.6
CC(C)n1nc(-c2cccc(C(F)(F)F)c2)cc1[C@H]1[C@@H]2C[C@H](N3CCC4(C3)CS(=O)(=O)C4)C[C@@H]21 (single isomer, unassigned) [Compound 1]	1.3	13.1	1.2
CC(C)n1nc(-c2cncc(C(F)(F)F)c2)cc1[C@H]1[C@@H]2C[C@@H](N3CCC4(C3)CS(=O)(=O)C4)C[C@@H]21 (single isomer, unassigned) [Compound 3]	34	16.2	3.9
CC(C)n1nc(-c2cncc(OC(F)F)c2)cc1[C@H]1[C@@H]2C[C@@H](N3CCC4(CC3)CS(=O)(=O)C4)C[C@@H]21 (single isomer, unassigned) [Compound 45*]	14	131	8.1
CCn1nc(-c2ccnc(C(F)(F)F)c2)cc1[C@H]1[C@@H]2C[C@H](N3CCC4(C3)CS(=O)(=O)C4)C[C@@H]21 [Compound 27, 6-((1R,3r,5S,6r)-6-(1-ethyl-3-(2-(trifluoromethyl)pyridin-4-yl)-1H-pyrazol-5-yl)bicyclo[3.1.0]hexan-3-yl)-2-thia-6-azaspiro[3.4]octane 2,2-dioxide]	1.6	11.6	2.3
CC(C)n1nc(-c2ccc(C(F)(F)F)nc2)cc1[C@H]1[C@@H]2C[C@H](N3CCC4(C3)CS(=O)(=O)C4)C[C@@H]21 (single isomer, unassigned) [Compound 14]	2.9	13	2
CC(C)n1nc(-c2ccc(C(F)(F)F)nc2)cc1[C@H]1[C@@H]2C[C@@H](N3CCC4(C3)CS(=O)(=O)C4)C[C@@H]21 (single isomer, unassigned) [Compound 13]	17	37.1	6.5
